Experimental data reported in patent EP4592286A1, “MACROCYCLIC NITROGEN-CONTAINING CROWN ETHER COMPOUND AND USE THEREOF AS PROTEIN KINASE INHIBITOR” (Artivila Biopharma, priority 2022, dated 2024).

Experiments:
Assay type in all cases: biochemical
JAK2 = JAK2 (Homo sapiens, UniProt O60674); assay: experiment of inhibiting kinase activity (Caliper mobility shift assay), JAK2; conditions: read-out: inhibition rate JAK2; for inhibition at 0.1 µM: at 100 nM; for inhibition at 0.01 µM: at 10 nM
Description: (§1) The inhibition rates of tested compounds on JAK1, JAK2, JAK3, TYK2, CDK7, CDK9, EGFR (T790M) and LRRK2 kinases were measured. The test concentrations of the compounds were 10 nM and 100 nM, and the detection was performed by replicate wells. Alternatively, compounds were 3-fold serial diluted from 10 µM for 10 concentrations in replicate wells.
(§2) The inhibitory effects of the compounds on JAK1, JAK2, JAK3, CDK7 and CDK9 kinases were detected by the method of Caliper mobility shift assay. 250 nL of the compound at 100-fold final concentration was transferred to a destination plate 384-well-plate by using a liquid handler Echo 550. A kinase solution at 2.5-fold final concentration was prepared with 1×kinase buffer. 10 µL of the kinase solution with 2.5-fold final concentration was added to compound wells and positive control wells; and 10 µL of 1×kinase buffer was added to negative control wells. The mixture was centrifuged at 1000 rpm for 30 seconds and then incubated at room temperature for 10 minutes. A mixed solution of ATP and kinase substrate at 5/3-fold final concentration was prepared with 1×kinase buffer, and 15 µL of the mixed solution of ATP and substrate at 5/3-fold final concentration was added to start the reaction. The 384-well plate was centrifuged at 1000 rpm for 30 seconds, shaked and mixed evenly, then incubated at room temperature for a corresponding time. 30 µL of stop solution was added to stop the kinase reaction, the mixture was centrifuged at 1000 rpm for 30 seconds, and shaked and mixed evenly. The conversion rate was read by Caliper EZ Reader. The conversion inhibition rate%=(average positive control conversion rate%-sample conversion rate%)/(average positive control conversion rate%-average negative control conversion rate%). Where negative control wells represent the conversion readings of the background well of kinase buffer; and positive control wells represent the conversion readings of wells without compound inhibition. With the log value of concentration as the x axis and the percentage inhibition rate as the y axis, the dose-response curve was fitted by the log (inhibitor) vs. response-variable slope of the analyzing softwar GraphPad Prism 5, and the IC50 values of each compound on enzyme activity were obtained. Calculation formula is as follows: y=Bottom+(Top-Bottom)/(1+10^((LogIC50-x)×hillslope)), where x is logarithm of inhibitor concentration; and Y is % inhibition rate.

CDK7 = CDK7 (Homo sapiens, UniProt P50613); assay: experiment of inhibiting kinase activity (Caliper mobility shift assay), CDK7; conditions: for inhibition at 0.1 µM: at 100 nM; for inhibition at 0.1 µM / inhibition at 0.01 µM: read-out: inhibition rate CDK7; for inhibition at 0.01 µM: at 10 nM
Description: as §1, §2

JAK3 = biological target: T1, JAK3 (Homo sapiens, UniProt P52333); assay: experiment of inhibiting kinase activity (Caliper mobility shift assay), JAK3; conditions: read-out: inhibition rate JAK3; for inhibition at 0.1 µM: at 100 nM; for inhibition at 0.01 µM: at 10 nM
T1 sequence (P52333 1-1124): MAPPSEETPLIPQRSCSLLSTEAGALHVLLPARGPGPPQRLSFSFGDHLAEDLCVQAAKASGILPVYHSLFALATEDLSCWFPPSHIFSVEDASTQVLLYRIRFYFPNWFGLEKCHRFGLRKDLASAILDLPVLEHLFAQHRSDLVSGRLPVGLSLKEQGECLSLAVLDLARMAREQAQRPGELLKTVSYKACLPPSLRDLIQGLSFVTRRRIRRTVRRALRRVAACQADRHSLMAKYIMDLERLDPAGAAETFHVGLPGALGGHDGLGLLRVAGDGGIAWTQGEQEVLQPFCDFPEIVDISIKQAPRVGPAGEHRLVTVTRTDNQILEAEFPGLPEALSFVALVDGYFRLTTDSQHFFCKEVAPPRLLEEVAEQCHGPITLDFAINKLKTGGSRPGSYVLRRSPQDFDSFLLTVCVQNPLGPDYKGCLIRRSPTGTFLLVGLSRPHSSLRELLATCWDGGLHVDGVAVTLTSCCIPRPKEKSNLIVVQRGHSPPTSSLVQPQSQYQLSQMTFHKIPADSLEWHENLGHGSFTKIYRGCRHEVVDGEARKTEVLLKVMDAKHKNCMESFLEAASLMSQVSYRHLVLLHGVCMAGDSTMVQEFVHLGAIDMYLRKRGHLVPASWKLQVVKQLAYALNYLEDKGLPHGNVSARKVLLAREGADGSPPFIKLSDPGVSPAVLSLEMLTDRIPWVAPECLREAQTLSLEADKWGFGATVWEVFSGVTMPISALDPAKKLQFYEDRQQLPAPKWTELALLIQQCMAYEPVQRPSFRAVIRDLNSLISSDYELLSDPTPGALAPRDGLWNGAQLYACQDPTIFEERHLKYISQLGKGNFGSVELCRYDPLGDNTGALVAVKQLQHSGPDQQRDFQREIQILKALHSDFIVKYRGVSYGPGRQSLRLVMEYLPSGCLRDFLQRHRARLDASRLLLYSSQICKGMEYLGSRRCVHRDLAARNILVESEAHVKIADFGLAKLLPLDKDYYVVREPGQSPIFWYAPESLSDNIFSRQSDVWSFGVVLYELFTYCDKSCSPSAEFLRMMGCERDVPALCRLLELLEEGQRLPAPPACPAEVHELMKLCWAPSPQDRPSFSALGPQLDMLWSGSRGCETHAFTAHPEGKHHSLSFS
Description: as §1, §2

LRRK2 = LRRK2 (Homo sapiens, UniProt Q5S007); assay: experiment of inhibiting kinase activity, LRRK2; conditions: for inhibition at 0.1 µM: at 100 nM; for inhibition at 0.1 µM / inhibition at 0.01 µM: read-out: inhibition rate LRRK2; for IC50: kinase activity assay, Table 3; for inhibition at 0.01 µM: at 10 nM
Description: as §1

TYK2 = TYK2 (Homo sapiens, UniProt P29597); assay: experiment of inhibiting kinase activity, TYK2; conditions: at 10 nM; read-out: inhibition rate TYK2
Description: as §1

JAK1 = JAK1 (Homo sapiens, UniProt P23458); assay: experiment of inhibiting kinase activity (Caliper mobility shift assay), JAK1; conditions: at 10 nM; read-out: inhibition rate JAK1
Description: as §1, §2

Chain of JAK2 (O60674 whole entry): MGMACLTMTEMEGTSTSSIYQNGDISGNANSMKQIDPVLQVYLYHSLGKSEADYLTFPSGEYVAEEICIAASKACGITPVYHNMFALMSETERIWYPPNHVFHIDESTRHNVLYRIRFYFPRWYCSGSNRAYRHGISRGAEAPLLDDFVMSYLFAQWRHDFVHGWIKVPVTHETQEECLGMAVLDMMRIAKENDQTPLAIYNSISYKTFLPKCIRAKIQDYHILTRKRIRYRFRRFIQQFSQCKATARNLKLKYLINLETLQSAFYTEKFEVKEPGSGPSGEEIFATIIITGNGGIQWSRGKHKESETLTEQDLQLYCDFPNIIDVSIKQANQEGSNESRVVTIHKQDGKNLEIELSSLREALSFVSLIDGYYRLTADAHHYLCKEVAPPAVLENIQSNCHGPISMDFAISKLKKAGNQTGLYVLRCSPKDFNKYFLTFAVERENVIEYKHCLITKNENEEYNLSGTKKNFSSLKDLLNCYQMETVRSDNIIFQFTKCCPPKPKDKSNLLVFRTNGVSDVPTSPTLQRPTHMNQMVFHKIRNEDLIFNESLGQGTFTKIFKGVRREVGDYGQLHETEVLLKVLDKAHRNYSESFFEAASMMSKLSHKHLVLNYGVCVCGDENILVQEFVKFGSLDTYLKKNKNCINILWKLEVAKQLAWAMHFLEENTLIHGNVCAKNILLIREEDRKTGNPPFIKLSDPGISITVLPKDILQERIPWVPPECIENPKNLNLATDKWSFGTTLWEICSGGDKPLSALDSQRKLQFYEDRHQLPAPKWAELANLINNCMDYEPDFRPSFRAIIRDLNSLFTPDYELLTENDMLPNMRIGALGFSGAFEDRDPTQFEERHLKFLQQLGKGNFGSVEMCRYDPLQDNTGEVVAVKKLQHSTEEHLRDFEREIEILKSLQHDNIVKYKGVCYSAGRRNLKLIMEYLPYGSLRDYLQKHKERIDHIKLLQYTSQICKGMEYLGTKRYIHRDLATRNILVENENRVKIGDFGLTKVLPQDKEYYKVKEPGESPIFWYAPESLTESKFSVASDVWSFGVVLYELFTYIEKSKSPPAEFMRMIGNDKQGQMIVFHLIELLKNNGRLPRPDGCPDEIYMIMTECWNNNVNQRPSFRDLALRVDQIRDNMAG
Chain of CDK7 (P50613 whole entry, species assumed): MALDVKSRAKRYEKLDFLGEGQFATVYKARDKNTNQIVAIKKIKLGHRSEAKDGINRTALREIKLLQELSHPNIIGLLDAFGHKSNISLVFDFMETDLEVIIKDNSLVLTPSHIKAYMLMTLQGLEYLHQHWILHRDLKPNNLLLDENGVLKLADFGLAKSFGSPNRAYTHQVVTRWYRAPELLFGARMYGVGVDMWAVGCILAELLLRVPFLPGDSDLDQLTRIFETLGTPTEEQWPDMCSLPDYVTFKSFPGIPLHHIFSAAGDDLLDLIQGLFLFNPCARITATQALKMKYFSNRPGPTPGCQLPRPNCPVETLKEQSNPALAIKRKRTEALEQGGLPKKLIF
Chain of CDK7 (P51946 whole entry partner, species assumed): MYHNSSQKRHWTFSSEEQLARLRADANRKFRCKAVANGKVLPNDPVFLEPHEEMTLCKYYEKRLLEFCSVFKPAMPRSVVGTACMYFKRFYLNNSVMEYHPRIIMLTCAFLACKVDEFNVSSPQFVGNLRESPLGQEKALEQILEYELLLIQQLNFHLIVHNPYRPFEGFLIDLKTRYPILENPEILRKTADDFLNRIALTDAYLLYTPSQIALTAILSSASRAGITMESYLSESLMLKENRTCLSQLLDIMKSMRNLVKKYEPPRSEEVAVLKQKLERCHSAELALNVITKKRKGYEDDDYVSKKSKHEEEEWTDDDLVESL
Chain of CDK7 (P51948 whole entry partner, species assumed): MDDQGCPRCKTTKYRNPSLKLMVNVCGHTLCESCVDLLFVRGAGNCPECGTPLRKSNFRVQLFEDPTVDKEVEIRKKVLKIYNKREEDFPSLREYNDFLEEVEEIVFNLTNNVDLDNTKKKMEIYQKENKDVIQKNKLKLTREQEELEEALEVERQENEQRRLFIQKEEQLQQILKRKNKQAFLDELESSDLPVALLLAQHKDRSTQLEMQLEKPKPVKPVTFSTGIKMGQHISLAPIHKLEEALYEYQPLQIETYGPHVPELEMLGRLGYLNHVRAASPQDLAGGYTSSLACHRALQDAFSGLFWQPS
Chain of LRRK2 (Q5S007 whole entry): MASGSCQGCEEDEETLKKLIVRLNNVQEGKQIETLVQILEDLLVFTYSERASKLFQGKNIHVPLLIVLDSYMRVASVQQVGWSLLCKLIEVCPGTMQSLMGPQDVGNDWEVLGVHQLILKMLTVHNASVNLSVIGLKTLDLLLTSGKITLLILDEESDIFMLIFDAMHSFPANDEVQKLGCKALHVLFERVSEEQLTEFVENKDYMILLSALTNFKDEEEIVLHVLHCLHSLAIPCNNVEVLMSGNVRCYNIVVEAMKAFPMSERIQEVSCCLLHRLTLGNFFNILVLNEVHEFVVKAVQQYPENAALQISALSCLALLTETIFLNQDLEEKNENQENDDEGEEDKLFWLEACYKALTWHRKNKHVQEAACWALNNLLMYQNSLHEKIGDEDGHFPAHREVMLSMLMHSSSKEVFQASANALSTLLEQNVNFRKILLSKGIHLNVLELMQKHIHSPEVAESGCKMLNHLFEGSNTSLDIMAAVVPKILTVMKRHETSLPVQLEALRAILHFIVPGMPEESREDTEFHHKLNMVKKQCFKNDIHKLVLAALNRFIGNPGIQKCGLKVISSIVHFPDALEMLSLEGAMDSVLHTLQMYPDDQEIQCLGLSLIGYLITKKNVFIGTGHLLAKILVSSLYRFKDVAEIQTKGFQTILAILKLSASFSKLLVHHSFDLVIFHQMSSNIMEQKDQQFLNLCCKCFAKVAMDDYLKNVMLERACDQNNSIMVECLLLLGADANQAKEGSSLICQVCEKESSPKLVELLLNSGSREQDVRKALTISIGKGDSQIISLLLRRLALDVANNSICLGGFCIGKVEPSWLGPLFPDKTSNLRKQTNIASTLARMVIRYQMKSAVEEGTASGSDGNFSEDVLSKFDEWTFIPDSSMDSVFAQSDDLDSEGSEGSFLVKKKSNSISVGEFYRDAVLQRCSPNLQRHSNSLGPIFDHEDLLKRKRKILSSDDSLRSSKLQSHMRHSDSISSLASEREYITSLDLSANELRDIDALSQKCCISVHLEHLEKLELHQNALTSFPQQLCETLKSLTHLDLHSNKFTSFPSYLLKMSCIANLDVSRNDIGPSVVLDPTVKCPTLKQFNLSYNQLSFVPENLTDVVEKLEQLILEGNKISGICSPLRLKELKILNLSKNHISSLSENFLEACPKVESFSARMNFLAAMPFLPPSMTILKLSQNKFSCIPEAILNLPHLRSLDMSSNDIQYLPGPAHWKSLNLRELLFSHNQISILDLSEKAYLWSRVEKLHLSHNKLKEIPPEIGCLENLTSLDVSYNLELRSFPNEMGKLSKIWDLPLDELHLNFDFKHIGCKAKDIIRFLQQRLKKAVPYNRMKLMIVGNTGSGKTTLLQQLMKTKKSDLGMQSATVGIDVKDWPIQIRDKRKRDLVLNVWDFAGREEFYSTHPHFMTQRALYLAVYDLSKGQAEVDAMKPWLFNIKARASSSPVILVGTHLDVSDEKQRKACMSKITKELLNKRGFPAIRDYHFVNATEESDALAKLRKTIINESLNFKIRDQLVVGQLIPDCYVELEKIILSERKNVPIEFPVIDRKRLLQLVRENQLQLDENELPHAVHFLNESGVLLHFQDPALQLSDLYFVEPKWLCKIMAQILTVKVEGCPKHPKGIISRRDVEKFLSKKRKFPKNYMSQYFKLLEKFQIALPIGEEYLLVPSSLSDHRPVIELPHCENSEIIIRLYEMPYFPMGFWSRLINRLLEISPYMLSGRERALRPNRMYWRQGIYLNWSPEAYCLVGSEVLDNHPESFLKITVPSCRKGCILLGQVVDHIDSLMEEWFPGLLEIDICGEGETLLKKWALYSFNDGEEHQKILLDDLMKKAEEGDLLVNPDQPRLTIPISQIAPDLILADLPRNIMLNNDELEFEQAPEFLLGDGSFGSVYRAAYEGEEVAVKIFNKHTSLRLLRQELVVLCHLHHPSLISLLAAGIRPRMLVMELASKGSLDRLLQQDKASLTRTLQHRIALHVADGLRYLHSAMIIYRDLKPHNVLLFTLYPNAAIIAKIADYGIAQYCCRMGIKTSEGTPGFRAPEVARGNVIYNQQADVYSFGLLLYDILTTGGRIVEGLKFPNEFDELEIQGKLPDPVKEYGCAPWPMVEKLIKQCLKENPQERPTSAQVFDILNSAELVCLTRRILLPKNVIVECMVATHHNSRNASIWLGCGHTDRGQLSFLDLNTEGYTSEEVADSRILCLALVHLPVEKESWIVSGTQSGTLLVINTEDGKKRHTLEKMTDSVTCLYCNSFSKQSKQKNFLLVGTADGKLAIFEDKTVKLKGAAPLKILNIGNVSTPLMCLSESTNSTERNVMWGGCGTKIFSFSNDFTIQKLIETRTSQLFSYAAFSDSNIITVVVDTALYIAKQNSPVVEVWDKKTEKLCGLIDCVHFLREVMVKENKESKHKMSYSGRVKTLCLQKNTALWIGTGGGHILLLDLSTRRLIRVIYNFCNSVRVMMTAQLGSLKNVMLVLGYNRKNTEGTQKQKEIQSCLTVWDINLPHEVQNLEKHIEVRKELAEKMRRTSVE

| Structure (SMILES) | inhibition at 0.1 µM (JAK2) | inhibition at 0.1 µM (CDK7) | inhibition at 0.1 µM (JAK3) | inhibition at 0.1 µM (LRRK2) | IC50 (LRRK2) | inhibition at 0.01 µM (JAK2) | inhibition at 0.01 µM (CDK7) | inhibition at 0.01 µM (JAK3) | inhibition at 0.01 µM (LRRK2) | IC50 (CDK7; kinase activity assay, Table 3) | inhibition at 0.01 µM (TYK2) | inhibition at 0.01 µM (JAK1) |
| --- | --- | --- | --- | --- | --- | --- | --- | --- | --- | --- | --- | --- |
| CN1CCOCCOc2cc(Nc3nc(Nc4cccc(S(N)(=O)=O)c4)c4cc[nH]c4n3)ccc2OCC1 [Example 67, 3-((2-((7-methyl-2,3,6,7,8,9-hexahydro-5H-benzo[b][1,4,7]trioxa[10]azacyclododecan-13-yl)amino)-7H-pyrrolo[2,3-d]pyrimidin-4-yl)amino)benzenesulfonamide] | 40 to 79% | 40 to 79% | 25 to 39% | > 80% | – | – | – | – | – | – | – | – |
| CC(C)S(=O)(=O)c1ccccc1Nc1nc(Nc2ccc3c(c2)OCCN(C)CCO3)nc2[nH]ncc12 [Example 36, N^4-(2-(isopropylsulfonyl)phenyl)-N^6-(4-methyl-3,4,5,6-tetrahydro-2H-benzo[b] [1,4,7]dioxazolin-9-yl)-1H-pyrazolo[3,4-d]pyrimidin-4,6-diamine] | 40 to 79% | 40 to 79% | 25 to 39% | > 80% | < 50 nM | – | – | – | – | – | – | – |
| CN1CCOc2ccc(Nc3nc(-c4cn(C)c5ccccc45)c4cn[nH]c4n3)cc2OCC1 [Example 5, 4-methyl-N-(4-(1-methyl-1H-indol-3-yl)-1H-pyrazolo[3,4-d]pyrimidin-6-yl)-3,4,5,6-tetrahydro-2H-benzo[b][1,4,7]dioxazolin-9-amine] | – | 25 to 39% | – | – | – | – | – | – | – | – | – | – |
| CC(=O)N1CCOCCOc2cc(Nc3nc(Nc4ccccc4S(=O)(=O)C(C)C)c4cc[nH]c4n3)ccc2OCC1 [Example 98, 1-(13-((4-((2-(isopropylsulfonyl)phenyl)amino)-7H-pyrrolo[2,3-d]pyrimidin-2-yl)amino)-2,3,5,6,8,9-hexahydro-7H-benzo[b][1,4,7]trioxa[10]azacyclododecan-7-yl)ethan-1-one] | – | – | – | – | < 50 nM | 40 to 79% | 25 to 39% | 40 to 79% | > 80% | – | – | – |
| CC(C)S(=O)(=O)c1ccccc1Nc1nc(Nc2ccc3c(c2)OCCN(C)CCOCCO3)nc2[nH]ccc12 [Example 53, N^4-(2-(isopropylsulfonyl)phenyl)-N^2-(7-methyl-2,3,6,7,8,9-hexahydro-5H-benzo[b][1,4,7]trioxa[10]azacyclododecan-12-yl)-7H-pyrrolo[2,3-d]pyrimidin-2,4-diamine] | – | – | – | – | – | 40 to 79% | > 80% | 40 to 79% | > 80% | – | – | – |
| CN1CCOCCOc2cc(Nc3nc(-c4cn(C)c5ccccc45)c4cn[nH]c4n3)ccc2OCC1 [Example 24, 7-methyl-N-(4-(1-methyl-1H-indol-3-yl)-1H-pyrazolo[3,4-d]pyrimidin-6-yl)-2,3,6,7,8,9-hexahydro-5H-benzo[b][1,4,7]trioxa[10]azacyclododecan-13-amine] | 40 to 79% | 40 to 79% | – | 25 to 39% | – | – | – | – | – | – | – | – |
| CN1CCOCCOc2cc(Nc3nc(Nc4ccccc4P(C)(C)=O)c4cn[nH]c4n3)ccc2OCC1 [Example 33, dimethyl(2-((6-((7-methyl-2,3,6,7,8,9-hexahydro-5H-benzo[b][1,4,7]trioxa[10]azacyclododecan-13-yl)amino)-1H-pyrazolo[3,4-d]pyrimidin-4-yl)amino)phenyl)phosphine oxide] | 40 to 79% | 40 to 79% | > 80% | > 80% | < 50 nM | – | – | 25 to 39% | > 80% | – | – | – |
| CN1CCOc2ccc(Nc3nc(-c4cn(C)c5ccccc45)c4cc[nH]c4n3)cc2OCC1 [Example 39, 4-methyl-N-(4-(1-methyl-1H-indol-3-yl)-7H-pyrrolo[2,3-d]pyrimidin-2-yl)-3,4,5,6-tetrahydro-2H-benzo[b][1,4,7]dioxazolin-9-amine] | 40 to 79% | 25 to 39% | – | 40 to 79% | < 50 nM | – | – | – | – | – | – | – |
| C=CC(=O)Nc1cc(C)ccc1Nc1nc(Nc2ccc3c(c2)OCCN(C)CCO3)ncc1C(F)(F)F [Example 112, N-(5-methyl-2-((2-((4-methyl-3,4,5,6-tetrahydro-2H-benzo[b][1,4,7]dioxazolin-9-yl)amino)-5-(trifluoromethyl)pyrimidin-4-yl)amino)phenyl)acrylamide] | – | – | – | – | – | – | 40 to 79% | – | – | – | – | – |
| CC(C)S(=O)(=O)c1ccccc1Nc1nc(Nc2ccc3c(c2)OCCN(C)CCOCCO3)nc2[nH]ncc12 [Example 12, N^4-(2-(isopropylsulfonyl)phenyl)-N^6-(7-methyl-2,3,6,7,8,9-hexahydro-5H-benzo[b][1,4, 7]trioxa[10]azacyclododecan-12-yl)-1H-pyrazolo[3,4-d]pyrimidin-4,6-diamine] | 40 to 79% | > 80% | 25 to 39% | > 80% | < 50 nM | – | 40 to 79% | – | 25 to 39% | < 50 nM | – | – |
| CCS(=O)(=O)N1CC(CC#N)(n2cc(-c3nc(Nc4ccc5c(c4)OCCN(C)CCOCCO5)nc4[nH]ccc34)cn2)C1 [Example 49, 2-(1-(ethylsulfonyl)-3-(4-(2-((7-methyl-2,3,6,7,8,9-hexahydro-5H-benzo[b][1,4,7]trioxa[10]azacyclododecan-12-yl)amino)-7H-pyrrolo[2,3-d]pyrimidin-4-yl)-1H-pyrazol-1-yl)azetidin-3-yl)acetonitrile] | – | – | – | – | – | > 80% | – | > 80% | 40 to 79% | – | > 80% | > 80% |
| CN1CCOCCOc2cc(Nc3nc(-c4ccc(C(=O)NCC#N)cc4)c4cc[nH]c4n3)ccc2OCC1 [Example 17, N-(cyanomethyl)-4-(2-((7-methyl-2,3,6,7,8,9-hexahydro-5H-benzo[b][1,4,7]trioxa [10]azacyclododecan-13-yl)amino)-7H-pyrrolo[2,3-d]pyrimidin-4-yl)benzamide] | – | – | – | – | – | > 80% | – | 40 to 79% | 40 to 79% | – | 40 to 79% | 40 to 79% |
| CN1CCOCCOc2ccc(Nc3ncc(F)c(-c4cnn(C(CC#N)C5CCCC5)c4)n3)cc2OCC1 (stereo not shown) [Example 42, 3-cyclopentyl-3-(4-(5-fluoro-2-((7-methyl-2,3,6,7,8,9-hexahydro-5H-benzo[b][1,4,7]trioxa[10]azacyclododecan-12-yl)amino)pyrimidin-4-yl)-1H-pyrazol-1-yl)propanenitrile] | – | – | – | – | – | > 80% | 25 to 39% | – | – | – | > 80% | – |
